Results published in paper doi:10.1101/404459v1 (biorxiv, 2018).
Blank lines part the entries; values can stand above or below the molecule they belong to.

Tests used:
PbCLK3 = target: T1, PbCLK3 (Plasmodium berghei, UniProt A0A509AKE9); experiment: TR-FRET kinase assay; type: biochemical; details: recombinant kinase
T1 sequence (A0A509AKE9 1-706): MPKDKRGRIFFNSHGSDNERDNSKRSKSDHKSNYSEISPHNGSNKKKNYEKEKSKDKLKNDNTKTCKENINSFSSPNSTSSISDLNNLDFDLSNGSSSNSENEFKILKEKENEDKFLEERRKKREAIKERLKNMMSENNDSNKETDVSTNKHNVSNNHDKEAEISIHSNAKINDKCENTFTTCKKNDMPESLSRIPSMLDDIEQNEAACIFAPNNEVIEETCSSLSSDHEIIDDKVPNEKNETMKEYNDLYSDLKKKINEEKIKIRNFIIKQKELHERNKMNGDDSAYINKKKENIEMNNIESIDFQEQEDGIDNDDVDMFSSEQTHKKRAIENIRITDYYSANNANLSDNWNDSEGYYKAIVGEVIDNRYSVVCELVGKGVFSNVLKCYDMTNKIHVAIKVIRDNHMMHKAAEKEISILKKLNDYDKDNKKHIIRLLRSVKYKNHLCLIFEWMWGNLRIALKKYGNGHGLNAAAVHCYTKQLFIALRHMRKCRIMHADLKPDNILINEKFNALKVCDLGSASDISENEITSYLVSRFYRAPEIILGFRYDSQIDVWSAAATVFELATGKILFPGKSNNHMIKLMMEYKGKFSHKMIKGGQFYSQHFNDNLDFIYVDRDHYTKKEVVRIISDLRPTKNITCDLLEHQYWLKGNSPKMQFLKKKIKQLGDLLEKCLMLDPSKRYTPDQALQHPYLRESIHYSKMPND

PvCLK3 = experiment: TR-FRET kinase assay; type: biochemical, Plasmodium vivax; details: recombinant kinase
purified protein = substrate: Nc1ncnc2c1ncn2[C@@H]1O[C@H](COP(=O)(O)OP(=O)(O)OP(=O)(O)O)[C@@H](O)[C@H]1O; experiment: purified protein; details: co-substrate ULight-CREBtide; pH […]; […] MgCl2; room temperature

pIC50 (PbCLK3): 7.47 ± 0.12 | pIC50 (PvCLK3): 7.86 ± 0.10
Molecule: CCN(CC)Cc1ccc(OC)c(-c2cc3c(-c4ccc(C(=O)O)c(C(C)C)c4)ccnc3[nH]2)c1 [TCMDC-135051]

B1: PfCLK1 (Plasmodium falciparum 3D7) (protein)
chain: DDEIVHFSWKKGMLLNNAFLVIRKMGDGTFGRVLLCQHIDNKKYYAVKVVRNIKKYTRSAKIEADILKKIQNDDINNNNIVKYHGKFMYYDHMCLIFEPLGPSLYEIITRNNYNGFHIEDIKLYCIEILKALNYLRKMSLTHTDLKPENILLDDPYFEKSLITVRRVTDGKKIQIYRTKSTGIKLIDFGCATFKSDYHGSIINTRQYRAPEVILNLGWDVSSDMWSFGCVLAELYTGSLLFRTHEHMEHLAMMESIIQPIPKNMLYEATKTNGSKYVNKDELKLAWPENASSINSIKHVKKCLPLYKIIKHELFCDFLYSILQIDPTLRPSPAELLKHKFLE
Km (purified protein): 30 µM
